Experiments:
TNFα secretion = assay: HL-60 TNFα Release Assay (inhibition of TNFα secretion, ELISA); format: cell-based; conditions: Homo sapiens, HL-60 cells, 40 nM phorbol myristate acetate, 20 hr at 37° C.
Procedure: The inhibition of TNFα secretion by the compounds of this invention was determined using a HL-60 TNFα Release Assay. HL-60 cells were cultured in RPMI 1640 with 10% fetal bovine serum and penicillin/streptomycin. HL-60 cells (150,000 cells/well) were placed in 96 well culture plates in RPMI 1640 with 10% fetal bovine serum and pen/strep containing 40 nM phorbol myristate acetate and test compound in DMSO (final DMSO 0.1%). HL-60 cells were then cultured for 20 hr at 37° C. (95% humidity) after which cell supernatants were collected for analysis of TNFα by ELISA.

stromelysin = target: T1, stromelysin (Homo sapiens, UniProt P08254); assay: Determination of stromelysin inhibition (cleavage of thiopeptide ester substrate, DTNB readout); format: biochemical; conditions: for IC50: recombinant truncated human stromelysin, pH 6.5, 30 min, ambient temperature, read-out: IC50, inhibitory potency against stromelysin
T1 construct: made in house; host or cells: E. coli
Procedure: The inhibition of stromelysin by the compounds of this invention was determined as follows: Recombinant truncated stromelysin (human sequence) produced in E. coli was prepared by expression and purification of the protein as described by Ye et al., Biochemistry, 1992, 31, 11231-11235. The enzyme was assayed by its cleavage of the thiopeptide ester substrate Ac-Pro-Leu-Gly-[2-mercapto-4-methyl-pentanoyl]-Leu-Gly-OEt described by Weingarten and Feder, Anal Biochem., 1985, 147, 437-440 (1985), as a substrate of vertebrate collagenase. The reported conditions were modified to allow assays to be carried out in a microtiter plate. Upon hydrolysis of the thioester bond, the released thiol group reacts rapidly with 5,5'-dithio-bis(2-nitrobenzoic acid) (DTNB), producing a yellow color which is measured by a microtiter plate reader set al 405 nm. The rates of cleavage of the substrate by stromelysin in the presence or absence of inhibitors are measured in a 30 min assay at ambient temperature. Solutions of the compounds in DMSO are prepared, and these are diluted at various concentrations into the assay buffer (50 mM MES/NaOH pH 6.5 with 10 mM CaCl2 and 0.2% Pluronic F-68), which is also used for dilution of the enzyme and substrate. The potency of the compounds [IC50 ] are calculated from the inhibition/inhibitor concentration data.

T1 sequence (P08254 100-273 limits assumed): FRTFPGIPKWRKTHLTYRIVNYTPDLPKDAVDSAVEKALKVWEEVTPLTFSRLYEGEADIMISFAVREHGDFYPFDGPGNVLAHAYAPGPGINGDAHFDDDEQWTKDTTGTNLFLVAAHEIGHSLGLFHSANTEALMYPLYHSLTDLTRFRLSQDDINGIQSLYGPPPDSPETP

Question: `O=C(CCCOc1ccc(-c2ccccc2)cc1)NO` [Example 1, 4-(4-phenylphenoxy)butanohydroxamic acid] was tested. Which inhibition at 16 µM (TNFα secretion) did it give?
Answer: 27%

Question: For `O=C(CCCOc1cccc(-c2ccccc2)c1)NO` [Example 2, 4-(3-phenylphenoxy)butanohydroxamic acid], which inhibition at 100 µM (stromelysin) is on record?
Answer: 5%

Question: `N#Cc1ccc(-c2ccc(OCCCC(=O)NO)cc2)cc1` [Example 3, 4-[4-(4-cyanophenyl)phenoxy]butanohydroxamic acid] was tested. Which IC50 (stromelysin) did it give?
Answer: 3.5 µM

Question: How did the inhibition at 16 µM (TNFα secretion) turn out when `N#Cc1cccc(-c2ccc(OCCCC(=O)NO)cc2)c1` [Example 4, 4-[4-(3-cyanophenyl)phenoxy]butanohydroxamic acid] was run?
Answer: 64%

Question: And the IC50 (stromelysin)?
Answer: 46 µM

Question: For `N#CCc1ccc(-c2ccc(OCCCC(=O)NO)cc2)cc1` [Example 5, 4-[4-(4-cyanomethylphenyl)phenoxy]butanohydroxamic acid], which inhibition at 16 µM (TNFα secretion) is on record?
Answer: 82%

Question: And the IC50 (stromelysin)?
Answer: 21 µM

Question: How did the inhibition at 16 µM (TNFα secretion) turn out when `N#CCc1cccc(-c2ccc(OCCCC(=O)NO)cc2)c1` [Example 6, 4-[4-(3-cyanomethylphenyl)phenoxy]butanohydroxamic acid] was run?
Answer: 40%

Question: And the IC50 (stromelysin)?
Answer: 1.9 µM

Question: Which results are given for `O=C(CCCOc1ccc(-c2ccc(Cl)cc2)cc1)NO` [Example 7, 4-[4-(4-chlorophenyl)phenoxy]butanohydroxamic acid]?
Answer: inhibition at 16 µM (TNFα secretion): 35%; inhibition at 100 µM (stromelysin): 47%

Question: With `CCCc1ccc(-c2ccc(OCCCC(=O)NO)cc2)cc1` [Example 8, 4-[4-(4-propylphenyl)phenoxy]butanohydroxamic acid] as the compound, how does the inhibition at 16 µM (TNFα secretion) read?
Answer: 35%

Question: What about the IC50 (stromelysin) of the same compound?
Answer: 10 µM

Question: How did the IC50 (stromelysin) turn out when `COc1ccc(-c2ccc(OCCCC(=O)NO)cc2)cc1` [Example 9, 4-[4-(4-methoxyphenyl)phenoxy]butanohydroxamic acid] was run?
Answer: 34 µM

Question: Which inhibition at 100 µM (stromelysin) does the source give for `O=C(CCCCCCOc1ccc(-c2ccccc2)cc1)NO` [Example 10, 7-(4-phenylphenoxy)heptanohydroxamic acid] here?
Answer: 45%

Question: `N#Cc1ccc(-c2ccc(OCCCCCCC(=O)NO)cc2)cc1` [Example 11, 7-[4-(4-cyanophenyl)phenoxy]heptanohydroxamic acid] was tested. Which inhibition at 16 µM (TNFα secretion) did it give?
Answer: 77%

Question: What about the IC50 (stromelysin) of the same compound?
Answer: 2.3 µM

Question: How did the inhibition at 16 µM (TNFα secretion) turn out when `O=C(CCCCOc1cccc(-c2ccc(F)cc2)c1)NO` [Example 12, 5-[3-(4-fluorophenyl)phenoxy]pentanohydroxamic acid] was run?
Answer: 62%

Question: What about the inhibition at 100 µM (stromelysin) of the same compound?
Answer: 20%

Question: For `N#Cc1cccc(-c2cccc(OCCCCC(=O)NO)c2)c1` [Example 13, 5-[3-(3-cyanophenyl)phenoxy]pentanohydroxamic acid], which inhibition at 16 µM (TNFα secretion) is on record?
Answer: 67%

Question: And the inhibition at 100 µM (stromelysin)?
Answer: 24%

Question: How did the inhibition at 16 µM (TNFα secretion) turn out when `N#Cc1ccc(-c2cccc(OCCCCC(=O)NO)c2)cc1` [Example 14, 5-[3-(4-cyanophenyl)phenoxy]pentanohydroxamic acid] was run?
Answer: 64%

Question: And the IC50 (stromelysin)?
Answer: 123 µM

Question: `O=C(CCCOc1cccc(-c2ccc(F)cc2)c1)NO` [Example 15, 4-[3-(4-fluorophenyl)phenoxy]butanohydroxamic acid] was tested. Which inhibition at 16 µM (TNFα secretion) did it give?
Answer: 63%

Question: And the IC50 (stromelysin)?
Answer: 74 µM

Question: For `N#Cc1ccc(-c2cccc(OCCCC(=O)NO)c2)cc1` [Example 16, 4-[3-(4-cyanophenyl)phenoxy]butanohydroxamic acid], which IC50 (stromelysin) is on record?
Answer: 24 µM

Question: Which IC50 (stromelysin) does the source give for `N#Cc1cccc(-c2cccc(OCCCC(=O)NO)c2)c1` [Example 17, 4-[3-(3-cyanophenyl)phenoxy]butanohydroxamic acid] here?
Answer: 2.5 µM

Question: For `O=C(CCCCOc1cccc(-c2ccccc2)c1)NO` [Example 18, 5-[3-phenylphenoxy]pentanohydroxamic acid], which inhibition at 16 µM (TNFα secretion) is on record?
Answer: 62%

Question: And the IC50 (stromelysin)?
Answer: 74 µM

Question: Which inhibition at 16 µM (TNFα secretion) does the source give for `O=C(CCCCOc1ccc(-c2ccccc2)cc1)NO` [Example 19, 5-[4-phenylphenoxy]pentanohydroxamic acid] here?
Answer: 61%

Question: `N#Cc1ccc(-c2ccc(OCCCCC(=O)NO)cc2)cc1` [Example 20, 5-[4-(4-cyanophenyl)phenoxy]pentanohydroxamic acid] was tested. Which inhibition at 16 µM (TNFα secretion) did it give?
Answer: 50%

Question: For `O=C(CCCCCOc1ccc(-c2ccccc2)cc1)NO` [Example 21, 6-[4-phenylphenoxy]hexanohydroxamic acid], which IC50 (stromelysin) is on record?
Answer: 77 µM

Question: How did the inhibition at 16 µM (TNFα secretion) turn out when `O=C(CCOc1cccc(-c2ccccc2)c1)NO` [Example 24, 3-(3-phenylphenoxy)propanohydroxamic acid] was run?
Answer: 59%

Question: What about the inhibition at 10 µM (stromelysin; @ 10 μM) of the same compound?
Answer: 14%

Question: `COc1ccc(-c2ccc(OCCC(=O)NO)cc2)cc1` [Example 26, 3-[4-(4-methoxyphenyl)phenoxy]propanohydroxamic acid] was tested. Which IC50 (stromelysin) did it give?
Answer: 0.079 µM

Question: How did the IC50 (stromelysin) turn out when `O=C(CCOc1ccc(-c2ccc(F)cc2)cc1)NO` [Example 27, 3-[4-(4-fluorophenyl)phenoxy]propanohydroxamic acid] was run?
Answer: 0.19 µM

Question: With `C[C@@H](COc1ccc(-c2ccccc2)cc1)C(=O)NO` [Example 28, (S)2-methyl-3-(4-phenylphenoxy)propanohydroxamic acid] as the compound, how does the IC50 (stromelysin) read?
Answer: 0.15 µM

Question: For `CNC(=O)C(CCOc1ccc(-c2ccc(C#N)cc2)cc1)CC(=O)NO` (stereo not shown) [Example 29, 3-(N-methylcarboxamido)-5-[4-(4-cyanophenyl)phenoxy]pentanohydroxamic acid], which IC50 (stromelysin) is on record?
Answer: 0.35 µM

Question: How did the IC50 (stromelysin) turn out when `O=C(CCSc1ccc(-c2ccccc2)cc1)NO` [Example 30, 3-(4-biphenylthio)propanohydroxamic acid] was run?
Answer: 2.1 µM

Question: Which IC50 (stromelysin) does the source give for `O=C(CSc1ccc(-c2ccccc2)cc1)NO` [Example 31, 2-(4-biphenylthio)ethanohydroxamic acid] here?
Answer: 0.88 µM

Question: For `O=C(CCNc1ccc(-c2ccccc2)cc1)NO` [Example 32, 3-(4-biphenylamino)propanohydroxamic acid], which IC50 (stromelysin) is on record?
Answer: 4.6 µM

Question: `O=C(Cc1ccc(-c2ccccc2)cc1)NO` [Example 33, 2-(4-biphenyl)ethanohydroxamic acid] was tested. Which inhibition at 100 µM (stromelysin) did it give?
Answer: 14%

Question: For `O=C(CCCc1ccc(-c2ccccc2)cc1)NO` [Example 34, 4-(4-biphenyl)butanohydroxamic acid], which inhibition at 16 µM (TNFα secretion) is on record?
Answer: 52%

Question: And the IC50 (stromelysin)?
Answer: 58 µM

Question: With `N#Cc1ccc(-c2ccc(CCCC(=O)NO)cc2)cc1` [Example 35, 4-[4-(4-cyanophenyl)phenyl]butanohydroxamic acid] as the compound, how does the IC50 (stromelysin) read?
Answer: 8.3 µM

Question: For `O=C(CCc1ccc(-c2ccccc2)cc1)NO` [Example 37, 3-(4-biphenyl)propanohydroxamic acid], which IC50 (stromelysin) is on record?
Answer: 30 µM

Question: `O=C(CCCCc1ccc(-c2ccccc2)cc1)NO` [Example 38, 5-(4-biphenyl)pentanohydroxamic acid] was tested. Which inhibition at 16 µM (TNFα secretion) did it give?
Answer: 65%

Question: And the IC50 (stromelysin)?
Answer: 1 µM

Question: `O=C(CCCCOc1ccc(-c2ccc(F)cc2)cc1)NO` [Example 39, 5-[4-(4-fluorophenyl)phenoxy]pentanohydroxamic acid] was tested. Which inhibition at 100 µM (stromelysin) did it give?
Answer: 47%

Question: Which inhibition at 100 µM (stromelysin) does the source give for `O=C(CCCOc1ccc(-c2ccccc2)cc1O)NO` [Example 40, 4-(2-hydroxy-4-phenylphenoxy)butanohydroxamic acid] here?
Answer: 39%

Question: How did the inhibition at 100 µM (stromelysin) turn out when `O=C(CCCOc1cc(-c2ccccc2)ccc1O)NO` [Example 41, 4-(2-hydroxy-5-phenylphenoxy)butanohydroxamic acid] was run?
Answer: 36%

Question: How did the IC50 (stromelysin) turn out when `N#CCc1cccc(-c2ccc(OCCC(=O)NO)cc2)c1` [Example 42, 3-[4-(3-cyanomethylphenyl)phenoxy]propanohydroxamic acid] was run?
Answer: 0.015 µM

Question: With `CC(C)(C)OC(=O)CC(CCOc1ccc(-c2ccc(C#N)cc2)cc1)C(=O)NO` (stereo not shown) [Example 43, 2-tert-butyloxycarbonylmethyl-4-[4-(4-cyanophenyl)phenoxy]butanohydroxamic acid] as the compound, how does the IC50 (stromelysin) read?
Answer: 0.49 µM

Question: Which IC50 (stromelysin) does the source give for `N#CCc1ccc(-c2ccc(OCCC(=O)NO)cc2)cc1` [Example 44, 3-[4-(4-cyanomethylphenyl)phenoxy]propanohydroxamic acid] here?
Answer: 0.19 µM

Question: For `O=C(NO)C(O)COc1ccc(-c2ccccc2)cc1` (stereo not shown) [Example 45, 2-hydroxy-3-[(4-phenyl)phenoxy]propanohydroxamic acid], which IC50 (stromelysin) is on record?
Answer: 2.3 µM
